US11702404B2, “GLP-1R modulating compounds” (priority 2019, dated 2023)
Where two headings read alike, the source gives them in different places.

Assays:
[1] = Microsomal stability, human liver microsomes (predicted hepatic clearance); details: predicted from in vitro microsomal stability data
GLP-1R = GLP-1R (Homo sapiens, UniProt P43220); assay: GLP-1R activation: cAMP increase in CHO cells stably expressing GLP-1R; type: cell-based; details: read-out: EC50
[2] = cAMP increase, CHO cells stably expressing GLP-1R, 10 point dose response, 30 minutes incubation

Chain of GLP-1R (P43220 24-463): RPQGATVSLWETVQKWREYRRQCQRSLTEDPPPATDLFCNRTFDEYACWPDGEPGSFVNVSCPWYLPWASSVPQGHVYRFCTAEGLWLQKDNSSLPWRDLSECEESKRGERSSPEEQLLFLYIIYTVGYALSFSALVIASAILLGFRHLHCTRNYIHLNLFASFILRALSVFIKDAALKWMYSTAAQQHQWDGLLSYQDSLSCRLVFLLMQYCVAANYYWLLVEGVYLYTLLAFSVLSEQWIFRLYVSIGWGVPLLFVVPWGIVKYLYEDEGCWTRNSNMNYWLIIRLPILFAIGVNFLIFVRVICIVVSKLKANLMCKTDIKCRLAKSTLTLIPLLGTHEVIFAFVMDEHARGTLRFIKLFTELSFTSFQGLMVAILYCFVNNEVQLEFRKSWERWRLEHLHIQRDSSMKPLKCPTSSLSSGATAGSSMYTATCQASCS

SMILES	Predicted Hepatic Clearance (Pred. Cl.) [1]	EC50 (GLP-1R; [2])	EC50 (GLP-1R)
N#Cc1ccc(COc2cccc(-c3ccc(Cc4nc5ccc(C(=O)O)cc5n4CC4(CF)CCC4)c(F)c3)n2)c(F)c1 [Example 393, 2-(4-(6-((4-cyano-2-fluorobenzyl)oxy)pyridin-2-yl)-2-fluorobenzyl)-1-((1-(fluoromethyl)cyclobutyl)methyl)-1H-benzo[d]imidazole-6-carboxylic]	0.3 L/h/kg	33.5 nM	–
O=C(O)c1ccc2nc(Cc3cc(F)c(-c4cccc(OCc5ccc(C(F)F)cc5F)n4)cc3F)n(CC34CC(CO3)C4)c2c1 [Example 670]	0.19 L/h/kg	0.51 nM	–
COC1(Cn2c(Cc3cc(F)c(-c4cccc(OCc5ccc(C#N)cc5F)n4)cc3F)nc3ccc(C(=O)O)cc32)CC1 [Example 746]	0.30 L/h/kg	0.87 nM	–
COCCn1c(Cc2cc(F)c(-c3cccc(OCc4ccc(C(F)F)nc4)n3)cc2F)nc2ccc(C(=O)O)cc21 [Example 860]	0.11 L/h/kg	22.6 nM	–
COCCn1c(Cc2ccc(-c3cccc(OCc4ccc(Cl)c5ccoc45)n3)cc2F)nc2ccc(C(=O)O)cc21 [Example 143, 2-(4-(6-((4-chlorobenzofuran-7-yl)methoxy)pyridin-2-yl)-2-fluorobenzyl)-1-(2-methoxyethyl)-1H-benzo[d]imidazole-6-carboxylic acid]	0.32 L/h/kg	2.59 nM	–
CO[C@H]1CN(C(C)=O)C[C@H]1n1c(Cc2cc(F)c(-c3cccc(OCc4ccc(C#N)cc4F)n3)cc2F)nc2ccc(C(=O)O)cc21 [Example 918, 3-[(3R,4S)-1-acetyl-4-methoxy-pyrrolidin-3-yl]-2-[[4-[6-[(4-cyano-2-fluoro-phenyl)methoxy]-2-pyridyl]-2,5-difluoro-phenyl]methyl]benzimidazole-5-carboxylic acid]	0.29 L/h/kg	–	24.9 nM
O=C(O)c1ccc2nc(Cc3cc(F)c(-c4ccnc(OCc5ccc(Cl)cc5F)n4)cc3F)n(C[C@@H]3CCO3)c2c1 [Example 413, (S)-2-(4-(2-((4-chloro-2-fluorobenzyl)oxy)pyrimidin-4-yl)-2,5-difluorobenzyl)-1-(oxetan-2-ylmethyl)-1H-benzo[d]imidazole-6-carboxylic acid]	<0.11 L/h/kg	0.07 nM	–
COCCn1c(Cc2ccc(-c3cccc(OCc4ccc(C#N)cc4F)n3)cc2C2=CCN(C(=O)OC(C)(C)C)CC2)nc2ccc(C(=O)O)cc21 [Example 173, 2-(2-(1-(tert-butoxycarbonyl)-1,2,3,6-tetrahydropyridin-4-yl)-4-(6-((4-cyano-2-fluorobenzyl)oxy)pyridin-2-yl)benzyl)-1-(2-methoxyethyl)-1H-benzo[d]imidazole-6-carboxylic acid]	0.3 L/h/kg	774 nM	–
COc1cc(C#N)ccc1COc1nccc(-c2ccc(Cc3nc4ccc(C(=O)O)nc4n3CC3(CF)CC3)cc2F)n1 [Example 322, 2-(4-(2-((4-cyano-2-methoxybenzyl)oxy)pyrimidin-4-yl)-3-fluorobenzyl)-3-((1-(fluoromethyl)cyclopropyl)methyl)-3H-imidazo[4,5-b]pyridine-5-carboxylic acid]	0.74 L/h/kg	0.58 nM	–
[2H]C([2H])(Oc1cccc(-c2cc(F)c(Cc3nc4ccc(C(=O)O)cc4n3CCOC)cc2F)n1)c1ccc(C#N)cc1F [Example 543, 2-(4-(6-((4-cyano-2-fluorophenyl)methoxy-d2)pyridin-2-yl)-2,5-difluorobenzyl)-1-(2-methoxyethyl)-1H-benzo[d]imidazole-6-carboxylic acid]	0.28 L/h/kg	1.51 nM	–
CC(=O)NCCn1c(Cc2ccc(-c3cccc(OCc4ccc(C#N)cc4F)n3)cc2F)nc2ccc(C(=O)O)cc21 [Example 485, 1-(2-acetamidoethyl)-2-(4-(6-((4-cyano-2-fluorobenzyl)oxy)pyridin-2-yl)-2-fluorobenzyl)-1H-benzo[d]imidazole-6-carboxylic acid]	0.22 L/h/kg	–	103 nM
COCCn1c(Cc2ccc(-c3cccc(OCc4ccc(C#N)c5ccccc45)n3)cc2F)nc2ccc(C(=O)O)cc21 [Example 357, 2-(4-(6-((4-cyanonaphthalen-1-yl)methoxy)pyridin-2-yl)-2-fluorobenzyl)-1-(2-methoxyethyl)-1H-benzo[d]imidazole-6-carboxylic acid]	<0.11 L/h/kg	56.2 nM	–
COCCn1c(Cc2ccc(-c3ccc(F)c(OCc4ccc(C#N)cc4F)n3)c(F)c2)nc2ccc(C(=O)O)cc21 [Example 320, 2-(4-(6-((4-cyano-2-fluorobenzyl)oxy)-5-fluoropyridin-2-yl)-3-fluorobenzyl)-1-(2-methoxyethyl)-1H-benzo[d]imidazole-carboxylic acid]	0.25 L/h/kg	18 nM	–
N#Cc1ccc(COc2nccc(-c3cc(F)c(Cc4nc5ccc(C(=O)O)cc5n4C[C@@H]4CCO4)cc3F)n2)c(F)c1 [Example 415, (S)-2-(4-(2-((4-cyano-2-fluorobenzyl)oxy)pyrimidin-4-yl)-2,5-difluorobenzyl)-1-(oxetan-2-ylmethyl)-1H-benzo[d]imidazole-6-carboxylic acid]	0.26 L/h/kg	0.15 nM	–
COc1cc(C#N)ccc1COc1cccc(-c2cc(F)c(Cc3nc4ccc(C(N)=O)cc4n3CC3(CC#N)CC3)cc2F)n1 [Example 598, 2-(4-(6-((4-cyano-2-methoxybenzyl)oxy)pyridin-2-yl)-2,5-difluorobenzyl)-1-((1-(cyanomethyl)cyclopropyl)methyl)-1H-benzo[d]imidazole-6-carboxamide]	1.15 L/h/kg	0.28 nM	–
NC(=O)c1cc(F)c(COc2cccc(-c3cc(F)c(Cc4nc5ccc(C(=O)O)cc5n4C[C@@H]4CCO4)cc3F)n2)cn1 [Example 854, (S)-2-(4-(6-((6-carbamoyl-4-fluoropyridin-3-yl)methoxy)pyridin-2-yl)-2,5-difluorobenzyl)-1-(oxetan-2-ylmethyl)-1H-benzo[d]imidazole-6-carboxylic acid]	0.14 L/h/kg	0.55 nM	–
CO[C@@H](CO)Cn1c(Cc2cc(F)c(-c3cccc(OCc4ccc(C#N)cc4F)n3)cc2F)nc2ccc(C(=O)O)cc21 [Example 619]	0.40 L/h/kg	3.1 nM	–
N#Cc1ccc(COc2cccc(-c3cc(F)c(Cc4nc5c(F)cc(C(=O)O)cc5n4CCOC(F)F)cc3F)n2)c(F)c1 [Example 892]	0.33 L/h/kg	0.78 nM	–
O=C(O)c1cc(F)c2nc(Cc3cc(F)c(-c4nc(OCc5ccc(C(F)(F)F)cc5F)ncc4F)cc3F)n(C[C@@H]3CCO3)c2c1 [Example 884]	0.19 L/h/kg	0.19 nM	–
N#Cc1ccc(COc2cccc(-c3ccc(Cc4nc5ccc(C(=O)O)cc5n4C4CC4)c(F)c3)n2)c(F)c1 [Example 356, 2-(4-(6-((4-cyano-2-fluorobenzyl)oxy)pyridin-2-yl)-2-fluorobenzyl)-1-cyclopropyl-1H-benzo[d]imidazole-6-carboxylic acid]	0.43 L/h/kg	48.7 nM	–
COCCn1c(Cc2ccc(-c3cccc(OCc4cccc(C#N)c4)n3)cc2F)nc2ccc(C(=O)O)cc21 [Example 497, 2-(4-(6-((3-cyanobenzyl)oxy)pyridin-2-yl)-2-fluorobenzyl)-1-(2-methoxyethyl)-1H-benzo[d]imidazole-6-carboxylic acid]	0.32 L/h/kg	1350 nM	–
N#Cc1ccc(COc2nc(-c3cc(F)c(Cc4nc5c(F)cc(C(=O)O)cc5n4C[C@@H]4CCO4)cc3F)ncc2F)c(F)c1 [Example 131, (S)-2-(4-(4-((4-cyano-2-fluorobenzyl)oxy)-5-fluoropyrimidin-2-yl)-2,5-difluorobenzyl)-4-fluoro-1-(oxetan-2-ylmethyl)-1H-benzo[d]imidazole-6-carboxylic acid]	0.24 L/h/kg	0.08 nM	–
N#Cc1ccc(COc2cccc(-c3cc(F)c(Cc4nc5ccc(C(=O)O)nc5n4CCOC(F)F)cc3F)n2)c(F)c1 [Example 583, 2-(4-(6-((4-cyano-2-fluorobenzyl)oxy)pyridin-2-yl)-2,5-difluorobenzyl)-3-(2-(difluoromethoxy)ethyl)-3H-imidazo[4,5-b]pyridine-5-carboxylic acid]	0.62 L/h/kg	2.39 nM	–
COCCn1c(Cc2ccc(-c3cccc(OCc4ccc(C#N)cc4F)n3)cc2F)nc2ccc(P(=O)(O)O)cc21 [Example 555, (2-(4-(6-((4-cyano-2-fluorobenzyl)oxy)pyridin-2-yl)-2-fluorobenzyl)-1-(2-methoxyethyl)-1H-benzo[d]imidazol-6-yl)phosphonic acid]	0.11 L/h/kg	57.9 nM	–
CNC(=O)C(Cn1c(Cc2ccc(-c3cccc(OCc4ccc(C#N)cc4F)n3)cc2F)nc2ccc(C(=O)O)cc21)OC (single isomer, unassigned) [Example 336, 2-(4-(6-((4-cyano-2-fluorobenzyl)oxy)pyridin-2-yl)-2-fluorobenzyl)-1-(2-methoxy-3-(methylamino)-3-oxopropyl)-1H-benzo[d]imidazole-6-carboxylic acid]	0.42 L/h/kg	4.9 nM	–
N#CCC1(Cn2c(Cc3c(F)cc(-c4ccc(F)c(OCc5ccc(C#N)cc5F)n4)cc3F)nc3ccc(C(=O)O)cc32)CC1 [Example 154, 2-(4-(6-((4-cyano-2-fluorobenzyl)oxy)-5-fluoropyridin-2-yl)-2,6-difluorobenzyl)-1-((1-(cyanomethyl)cyclopropyl)methyl)-1H-benzo[d]imidazole-6-carboxylic acid]	0.29 L/h/kg	0.51 nM	–
N#Cc1ccc(COc2nccc(-c3cc(F)c(Cc4nc5ccc(C(=O)NS(=O)(=O)C6CC6)cc5n4C[C@@H]4CCO4)cc3F)n2)c(F)c1 [Example 685]	0.14 L/h/kg	1.05 nM	–
